Data taken from US20250179073A1, “TRICYCLIC HETEROCYCLE COMPOUNDS AS IAP ANTAGONISTS” (Ascentage Pharma (Suzhou) Co., Ltd., priority 2022, published 2025).

Test system: MDA-MB-231 cells
Experiment: Cell proliferation assay (CellTiter-Glo), MDA-MB-231
Type: cell-based
Details: 72 h treatment, Celltiter-Glo luminescence
Description: Example 238: Cell Proliferation Assay
MDA-MB-231 and EVSA-T cells (10000 cells/well) were plated onto 96-well plates (Corning, Cat #3917) in 95 μL of medium (RPMI-1640 containing 10% FBS and MEM containing 10% FBS, respectively). Compounds with various concentrations ([…]) were added to the wells. After treatment for 72 h, 30 μL of Celltiter-Glo reagent (Promega, Cat #G7573) was added and incubated at room temperature for 15 min, then the luminescent signal was determined using a microplate reader (Biotek, SynergyH1). The inhibitor dose-response curves were analyzed using normalized IC50 regression curve fitting with control based normalization.

Compound	IC50 (Homo sapiens, MDA-MB-231, 72 h)	IC50
CC(C)c1ncc2c(Cc3ccc(F)cc3)cc3c(n12)C(C)(C)CN3C(=O)CN1C[C@@H](C)NC[C@@H]1CN1CCOC[C@H]1C [Example 5, 1-(4-(4-fluorobenzyl)-1-isopropyl-8,8-dimethyl-7,8-dihydro-6H-imidazo[1,5-a]pyrrolo[2,3-e]pyridin-6-yl)-2-((2R,5R)-5-methyl-2-(((R)-3-methylmorpholino)methyl)piperazin-1-yl)ethan-1-one]	160 nM	
C[C@@H]1CN(CC(=O)N2CC(C)(C)c3c2cc(Cc2ccc(F)cc2)c2nc(N4CC(C)(O)C4)nn32)[C@@H](CN2CCOC[C@H]2C)CN1 [Compound 170, 1-(4-(4-fluorobenzyl)-2-(3-hydroxy-3-methylazetidin-1-yl)-8,8-dimethyl-7,8-dihydro-6H-pyrrolo[2,3-e][1,2,4]triazolo[1,5-a]pyridin-6-yl)-2-((2R,5R)-5-methyl-2-(((R)-3-methylmorpholino)methyl)piperazin-1-yl)ethan-1-one]	99 nM	
CC(=O)N1CCN(C[C@H]2CN[C@H](C)CN2CC(=O)N2CC(C)(C)c3c2cc(Cc2ccc(F)cc2)c2nc(C(F)(F)F)cn32)[C@H](C)C1 [Compound 174, 2-((2R,5R)-2-(((R)-4-acetyl-2-methylpiperazin-1-yl)methy 1)-5-methylpiperazin-1-yl)-1-(4-(4-fluorobenzyl)-8,8-dimethyl-2-(trifluoromethyl)-7,8-dihydro-6H-imidazo[1,2-a]pyrrolo[2,3-e]pyridin-6-yl)ethan-1-one]	450 nM	
C[C@@H]1CN(CC(=O)N2CC(C)(C)c3c2cc(Cc2ccc(F)cc2)c2ncnn32)[C@@H](CN2CCN(C(N)=O)C[C@H]2C)CN1 [Compound 215, (R)-4-(((2R,5R)-1-(2-(4-(4-fluorobenzyl)-8,8-dimethyl-7,8-dihydro-6H-pyrrolo[2,3-e][1,2,4]triazolo[1,5-a]pyridin-6-yl)-2-oxoethyl)-5-methylpiperazin-2-yl)methyl)-3-methylpiperazine-1-carboxamide]	430 nM	
Cc1nc(CO)c2c(Cc3ccc(F)cc3)cc3c(n12)C(C)(C)CN3C(=O)CN1C[C@@H](C)NC[C@@H]1CN1CCOC[C@H]1C [Compound 125, 1-(4-(4-fluorobenzyl)-3-(hydroxymethyl)-1,8,8-trimethyl-7,8-dihydro-6H-imidazo[1,5-a]pyrrolo[2,3-e]pyridin-6-yl)-2-((2R,5R)-5-methyl-2-(((R)-3-methylmorpholino)methyl)piperazin-1-yl)ethan-1-one]	200 nM	
C[C@@H]1CN(CC(=O)N2CC(C)(C)c3c2cc(Cc2ccc(F)cc2)c2nc(C(F)(F)F)cn32)[C@@H](CN2CCN(S(C)(=O)=O)C[C@H]2C)CN1 [Compound 178, 1-(4-(4-fluorobenzyl)-8,8-dimethyl-2-(trifluoromethyl)-7,8-dihydro-6H-imidazo[1,2-a]pyrrolo[2,3-e]pyridin-6-yl)-2-((2R,5R)-5-methyl-2-(((R)-2-methyl-4-(methylsulfonyl)piperazin-1-yl)methyl)piperazin-1-yl)ethan-1-one]	490 nM	
C[C@@H]1CN(CC(=O)N2CC(C)(C)c3c2cc(N2CCN(C)c4cc(F)ccc42)c2ncnn32)[C@@H](CN2CCOC[C@H]2C)CN1 [Compound 194, 1-(4-(6-fluoro-4-methyl-3,4-dihydroquinoxalin-1(2H)-yl)-8,8-dimethyl-7,8-dihydro-6H-pyrrolo[2,3-e][1,2,4]triazolo[1,5-a]pyridin-6-yl)-2-((2R,5R)-5-methyl-2-(((R)-3-methylmorpholino)methyl)piperazin-1-yl)ethan-1-one]	680 nM	
Cc1nc(C)n2c3c(cc(Cc4ccc(F)cc4)c12)N(C(=O)CN1C[C@@H](C)NC[C@@H]1CN1CCOC[C@H]1C)CC3(C)C [Compound 124, 1-(4-(4-fluorobenzyl)-1,3,8,8-tetramethyl-7,8-dihydro-6H-imidazo[1,5-a]pyrrolo[2,3-e]pyridin-6-yl)-2-((2R,5R)-5-methyl-2-(((R)-3-methylmorpholino)methyl)piperazin-1-yl)ethan-1-one]	290 nM	
C[C@@H]1CN(CC(=O)N2CC(C)(C)c3c2cc(Cc2ccc(F)cc2)c2nn(C4CNC4)c(=O)n32)[C@@H](CN2CCOC[C@H]2C)CN1 [Compound 249, 2-(azetidin-3-yl)-4-(4-fluorobenzyl)-8,8-dimethyl-6-(2-((2R,5R)-5-methyl-2-(((R)-3-methylmorpholino)methyl)piperazin-1-yl)acetyl)-2,6,7,8-tetrahydro-1H-pyrrolo[2,3-e][1,2,4]triazolo[4,3-a]pyridin-1-one]	41 nM	
C[C@@H]1CN(CC(=O)N2CC(C)(C)c3c2cc(Cc2c(F)cc(F)cc2F)c2nncn32)[C@@H](CN2CCOC[C@H]2C)CN1 [Compound 164, 1-(8,8-dimethyl-4-(2,4,6-trifluorobenzyl)-7,8-dihydro-6H-pyrrolo[2,3-e][1,2,4]triazolo[4,3-a]pyridin-6-yl)-2-((2R,5R)-5-methyl-2-(((R)-3-methylmorpholino)methyl)piperazin-1-yl)ethan-1-one]	430 nM	
C[C@@H]1CN(CC(=O)N2CC(C)(C)c3c2cc(C(O)c2ccc(F)cc2F)c2ncnn32)[C@@H](CN2CCOC[C@H]2C)CN1 (stereo partly drawn) [Compound 50, 1-(4-((2,4-difluorophenyl)(hydroxy)methyl)-8,8-dimethyl-7,8-dihydro-6H-pyrrolo[2,3-e][1,2,4]triazolo[1,5-a]pyridin-6-yl)-2-((2R,5R)-5-methyl-2-(((R)-3-methylmorpholino)methyl)piperazin-1-yl)ethan-1-one]	> 10000 nM	
C[C@@H]1CN(CC(=O)N2CC(C)(C)c3c2cc(Cc2ccc(F)cc2)c2cnc(-c4ccc(F)cc4)n32)[C@@H](CN2CCOC[C@H]2C)CN1 [Example 8, 1-(4-(4-fluorobenzyl)-1-(4-fluorophenyl)-8,8-dimethyl-7,8-di hydro-6H-imidazo[1,5-a]pyrrolo[2,3-e]pyridin-6-yl)-2-((2R,5R)-5-methyl-2-(((R)-3-methylmorpholino)methyl)piperazin-1-yl)ethan-1-one]	36 nM	
C[C@@H]1CN(CC(=O)N2CC(C)(C)c3c2cc(Cc2ccc(F)cc2)c2nc(N4C[C@@H](O)[C@H](O)C4)nn32)[C@@H](CN2CCOC[C@H]2C)CN1 [Compound 226, 1-(2-((3R,4R)-3,4-dihydroxypyrrolidin-1-yl)-4-(4-fluorobenzyl)-8,8-dimethyl-7,8-dihydro-6H-pyrrolo[2,3-e][1,2,4]triazolo[1,5-a]pyridin-6-yl)-2-((2R,5R)-5-methyl-2-(((R)-3-methylmorpholino)methyl)piperazin-1-yl)ethan-1-one]		530 nM
C[C@@H]1CN(CC(=O)N2CC(C)(C)c3c2cc(Cc2ccc(F)cc2)c2nn(C[C@@H]4COCCO4)c(=O)n32)[C@@H](CN2CCOC[C@H]2C)CN1 [Compound 233, 2-(((R)-1,4-dioxan-2-yl)methyl)-4-(4-fluorobenzyl)-8,8-di methyl-6-(2-((2R,5R)-5-methyl-2-(((R)-3-methylmorpholino)methyl)piperazin-1-yl)acetyl)-2,6,7,8-tetrahydro-1H-pyrrolo[2,3-e][1,2,4]triazolo[4,3-a]pyridin-1-one]	260 nM	
C[C@@H]1CN(CC(=O)N2CC(C)(C)c3c2cc(Sc2ccc(F)cn2)c2ncnn32)[C@@H](CN2CCOC[C@H]2C)CN1 [Compound 211, 1-(4-((5-fluoropyridin-2-yl)thio)-8,8-dimethyl-7,8-dihydro-6H-pyrrolo[2,3-e][1,2,4]triazolo[1,5-a]pyridin-6-yl)-2-((2R,5R)-5-methyl-2-(((R)-3-methylmorpholino)methyl)piperazin-1-yl)ethan-1-one]	150 nM	
C[C@@H]1CN(CC(=O)N2CC(C)(C)c3c2cc(Cc2ccc(F)cc2)c2cnc(C4CC4)n32)[C@@H](CN2CCOC[C@H]2C)CN1 [Compound 3, 1-(1-cyclopropyl-4-(4-fluorobenzyl)-8,8-dimethyl-7,8-dihydro-6H-imidazo[1,5-a]pyrrolo[2,3-e]pyridin-6-yl)-2-((2R,5R)-5-methyl-2-(((R)-3-methylmorpholino)methyl)piperazin-1-yl)ethan-1-one]	59 nM	
C[C@@H]1CN(CC(=O)N2CC(C)(C)c3c2cc(C(F)(F)C24CC(C(F)(F)F)(C2)C4)c2ncnn32)[C@@H](CN2CCOC[C@H]2C)CN1 [Compound 166, 1-(4-(difluoro(3-(trifluoromethyl)bicyclo[1.1.1]pentan-1-yl)methyl)-8,8-dimethyl-7,8-dihydro-6H-pyrrolo[2,3-e][1,2,4]triazolo[1,5-a]pyridin-6-yl)-2-((2R,5R)-5-methyl-2-(((R)-3-methylmorpholino)methyl)piperazin-1-yl)ethan-1-one]	150 nM	
C[C@@H]1CN(CC(=O)N2CC(C)(C)c3c2cc(Cc2ccc(F)cc2)c2nc(S(C)(=O)=O)nn32)[C@@H](CN2CCOC[C@H]2C)CN1 [Compound 200, 1-(4-(4-fluorobenzyl)-8,8-dimethyl-2-(methylsulfonyl)-7,8-dihydro-6H-pyrrolo[2,3-e][1,2,4]triazolo[1,5-a]pyridin-6-yl)-2-((2R,5R)-5-methyl-2-(((R)-3-methylmorpholino)methyl)piperazin-1-yl)ethan-1-one]	70 nM	
COC(=O)N1CCN(C[C@H]2CN[C@H](C)CN2CC(=O)N2CC(C)(C)c3c2cc(Cc2ccc(F)cc2)c2nn(CC(C)(C)O)c(=O)n32)[C@H](C)C1 [Compound 280, methyl (R)-4-(((2R,5R)-1-(2-(4-(4-fluorobenzyl)-2-(2-hydroxy-2-methylpropyl)-8,8-dimethyl-1-oxo-1,2,7,8-tetrahydro-6H-pyrrolo[2,3-e][1,2,4]triazolo[4,3-a]pyridin-6-yl)-2-oxoethyl)-5-methylpiperazin-2-yl)methyl)-3-methylpiperazine-1-carboxylate]	68 nM	
